Reference: patent US9902702B2, “Spirocycloheptanes as inhibitors of rock” (BRISTOL-MYERS SQUIBB COMPANY, priority 2014, dated 2018)

These compounds were tested against ROCK2 (Homo sapiens, UniProt O75116) (assay: ROCK assay: phosphorylation of FITC peptide substrate, LABCHIP 3000 mobility shift). Details: 5 μM ATP, 1.5 μM peptide substrate; read-out: ROCK2 Activity (ROCK IC50 range).
Type: biochemical
In short: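 Rho kinase variant phosphorylates 1.5 μM FITC-AHA-AKRRRLSSLRA-OH with 5 μM ATP in 20 mM HEPES pH 7.5, 20 mM MgCl2, 0.015% Brij-35, 4 mM DTT, DMSO <2%. EDTA stops the reaction, and phospho and non-phospho peptides are resolved by LabChip 3000 mobility shift. IC50 from dose-response curve fit.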

Sequence of ROCK2 (O75116 whole entry, species assumed): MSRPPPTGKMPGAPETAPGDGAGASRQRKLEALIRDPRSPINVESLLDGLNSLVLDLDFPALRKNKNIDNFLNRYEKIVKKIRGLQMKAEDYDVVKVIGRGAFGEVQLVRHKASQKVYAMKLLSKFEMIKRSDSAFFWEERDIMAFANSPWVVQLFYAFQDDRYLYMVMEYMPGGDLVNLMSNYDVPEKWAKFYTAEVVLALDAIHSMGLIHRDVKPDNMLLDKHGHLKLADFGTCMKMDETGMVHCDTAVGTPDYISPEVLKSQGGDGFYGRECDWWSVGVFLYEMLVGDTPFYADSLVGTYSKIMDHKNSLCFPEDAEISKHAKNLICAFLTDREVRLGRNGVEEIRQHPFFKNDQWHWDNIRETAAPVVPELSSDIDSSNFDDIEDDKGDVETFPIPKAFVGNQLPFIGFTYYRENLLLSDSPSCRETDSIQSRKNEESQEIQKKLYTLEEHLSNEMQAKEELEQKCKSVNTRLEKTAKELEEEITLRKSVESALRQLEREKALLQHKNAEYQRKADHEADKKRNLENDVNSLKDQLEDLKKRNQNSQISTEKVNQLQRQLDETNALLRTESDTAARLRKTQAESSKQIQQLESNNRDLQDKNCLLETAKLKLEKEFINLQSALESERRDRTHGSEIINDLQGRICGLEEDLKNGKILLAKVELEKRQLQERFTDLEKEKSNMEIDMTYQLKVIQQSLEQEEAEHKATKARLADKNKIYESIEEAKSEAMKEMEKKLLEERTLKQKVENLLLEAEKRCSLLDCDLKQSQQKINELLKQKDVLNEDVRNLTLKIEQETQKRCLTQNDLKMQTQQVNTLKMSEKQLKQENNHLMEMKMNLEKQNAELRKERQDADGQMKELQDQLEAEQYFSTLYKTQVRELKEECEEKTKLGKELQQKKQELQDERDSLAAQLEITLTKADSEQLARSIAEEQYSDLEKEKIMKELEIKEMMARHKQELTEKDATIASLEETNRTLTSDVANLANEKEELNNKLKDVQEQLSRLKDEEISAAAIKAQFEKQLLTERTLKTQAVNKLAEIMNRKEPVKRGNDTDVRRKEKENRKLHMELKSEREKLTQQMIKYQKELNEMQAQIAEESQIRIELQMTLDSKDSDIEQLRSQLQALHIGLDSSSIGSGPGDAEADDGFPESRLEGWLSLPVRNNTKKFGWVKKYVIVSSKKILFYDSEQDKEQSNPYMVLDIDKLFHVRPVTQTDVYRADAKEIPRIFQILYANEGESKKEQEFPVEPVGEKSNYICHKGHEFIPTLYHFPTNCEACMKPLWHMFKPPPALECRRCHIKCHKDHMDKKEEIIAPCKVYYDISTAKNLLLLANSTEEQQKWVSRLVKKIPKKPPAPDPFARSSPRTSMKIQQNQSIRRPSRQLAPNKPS

Compound	IC50 [nM]
O=C(Nc1ccc(-c2cnn(C3CC3)c2)cc1)NC1CC2(C1)CC(c1n[nH]c(=O)c3ccccc13)C2 [Example 230, 1-(4-(1-cyclopropyl-1H-pyrazol-4-yl)phenyl)-3-((aR)-6-(4-oxo-3,4-dihydrophthalazin-1-yl)spiro[3.3]heptan-2-yl)urea]	15.1 to 100
Cc1nnn(C)c1-c1ccc2c(C(=O)NC3CC4(C3)CC(c3n[nH]c(=O)c5ccccc35)C4)cnn2c1 (stereo not drawn) [Example 175, 6-(1,4-dimethyl-1H-1,2,3-triazol-5-yl)-N-((αR)-6-(4-oxo-3,4-dihydrophthalazin-1-yl)spiro[3.3]heptan-2-yl)pyrazolo[1,5-α]pyridine-3-carboxamide]	15.1 to 100
[H][C@]1(c2n[nH]c(=O)c3ccccc32)C[C@@]2(C[C@H](NC(=O)c3ncn4ccccc34)C2)C1 (stereo partly drawn) [Example 292, N-((aR)-6-(4-oxo-3,4-dihydrophthalazin-1-yl)spiro[3.3]heptan-2-yl)imidazo[1,5-a]pyridine-1-carboxamide]	15.1 to 100
[H][C@]1(c2n[nH]c(=O)c3ccccc32)C[C@]2(C[C@@H](NC(=O)c3ccc(-c4nn[nH]n4)cc3)C2)C1 (stereo partly drawn) [Example 345, N-((aR)-6-(4-oxo-3,4-dihydrophthalazin-1-yl)spiro[3.3]heptan-2-yl)-4-(2H-tetrazol-5-yl)benzamide]	100 to 2100
[H][C@]1(c2n[nH]c(=O)c3ccccc32)C[C@]2(C[C@@H](NC(=O)c3cnc4ccc(C(F)(F)F)cn34)C2)C1 (stereo partly drawn) [Example 390, N-((aR)-6-(4-oxo-3,4-dihydrophthalazin-1-yl)spiro[3.3]heptan-2-yl)-6-(trifluoro-methyl)imidazo[1,2-a]pyridine-3-carboxamide]	5.1 to 15
O=C(NC1CC2(C1)CC(c1n[nH]c(=O)c3ccccc13)C2)c1cnn(C2CC2)c1 [Example 27, 1-cyclopropyl-N-[(aR)-6-(4-oxo-3,4-dihydrophthalazin-1-yl)spiro[3.3]heptan-2-yl]-1H-pyrazole-4-carboxamide]	5.1 to 15
O=C(NC1CC2(C1)CC(c1n[nH]c(=O)c3ccccc13)C2)N1Cc2ccncc2C1 [Example 264, N-((aR)-6-(4-oxo-3,4-dihydrophthalazin-1-yl)spiro[3.3]heptan-2-yl)-1H-pyrrolo[3,4-c]pyridine-2(3H)-carboxamide]	15.1 to 100
O=C(NC1CC2(C1)CC(c1n[nH]c(=O)c3ccccc13)C2)N1CCc2cccnc21 [Example 256, N-((aR)-6-(4-oxo-3,4-dihydrophthalazin-1-yl)spiro[3.3]heptan-2-yl)-2,3-dihydro-1H-pyrrolo[2,3-b]pyridine-1-carboxamide]	15.1 to 100
[H][C@]1(c2n[nH]c(=O)c3ccccc32)C[C@]2(C[C@@H](NC(=O)c3cnn4cccc(N5CCOCC5)c34)C2)C1 (stereo partly drawn) [Example 438, 4-morpholino-N-((aR)-6-(4-oxo-3,4-dihydrophthalazin-1-yl)spiro[3.3]heptan-2-yl)pyrazolo[1,5-a]pyridine-3-carboxamide]	100 to 2100
O=C(OC1CC2(C1)CC(c1n[nH]c(=O)c3ccccc13)C2)N1Cc2ccccc2C1 (centres unmarked) [Example 464, 6-(4-oxo-3,4-dihydrophthalazin-1-yl)spiro[3.3]heptan-2-yl isoindoline-2-carboxylate]	100 to 2100
CN(C)S(=O)(=O)c1ccc2c(c1)CCN2C(=O)NC1CC2(C1)CC(c1n[nH]c(=O)c3ccccc13)C2 [Example 260, 5-(N,N-dimethylsulfamoyl)-N-((aR)-6-(4-oxo-3,4-dihydrophthalazin-1-yl)spiro[3.3]heptan-2-yl)indoline-1-carboxamide]	5.1 to 15
[H][C@]1(c2n[nH]c(=O)c3ccccc32)C[C@]2(C[C@@H](NC(=O)c3cnc4c(F)cc(F)cn34)C2)C1 (stereo partly drawn) [Example 411, 6,8-difluoro-N-((aR)-6-(4-oxo-3,4-dihydrophthalazin-1-yl)spiro[3.3]heptan-2-yl)imidazo[1,2-a]pyridine-3-carboxamide]	5.1 to 15
[H][C@]1(c2n[nH]c(=O)c3ccccc32)C[C@]2(C[C@@H](NC(=O)c3cnc4cc(C(F)(F)F)ccn34)C2)C1 (stereo partly drawn) [Example 403, N-((aR)-6-(4-oxo-3,4-dihydrophthalazin-1-yl)spiro[3.3]heptan-2-yl)-7-(trifluoromethyl)imidazo[1,2-a]pyridine-3-carboxamide]	2.01 to 5
O=C(NC1CC2(C1)CC(c1n[nH]c(=O)c3ccccc13)C2)c1nn(-c2cccc(Cl)c2)c2c1CCNC2=O [Example 288, 1-(3-chlorophenyl)-7-oxo-N-((aR)-6-(4-oxo-3,4-dihydrophthalazin-1-yl)spiro[3.3]heptan-2-yl)-4,5,6,7-tetrahydro-1H-pyrazolo[3,4-c] pyridine-3-carboxamide]	15.1 to 100

Second part, the compound after the results:

IC50 [nM]	Compound
0.2 to 2	O=C(NC1CC2(C1)CC(c1n[nH]c(=O)c3ccccc13)C2)c1cnn2cc(-c3cnn(CC4CC4)c3)ccc12 [Example 218, 6-(1-(cyclopropylmethyl)-1H-pyrazol-4-yl)-N-((aR)-6-(4-oxo-3,4-dihydrophthalazin-1-yl)spiro[3.3]heptan-2-yl)pyrazolo[1,5-a]pyridine-3-carboxamide]
2.01 to 5	Cc1c(C(=O)NC2CC3(C2)CC(c2n[nH]c(=O)c4ccccc24)C3)nnn1-c1ccccc1 [Example 114, 5-methyl-N-((aR)-6-(4-oxo-3,4-dihydrophthalazin-1-yl)spiro[3.3]heptan-2-yl)-1-phenyl-1H-1,2,3-triazole-4-carboxamide]
2.01 to 5	Cc1nn(CC(F)F)cc1C(=O)NC1CC2(C1)CC(c1n[nH]c(=O)c3ccccc13)C2 [Example 32, 1-(2,2-difluoroethyl)-3-methyl-N-[(aR)-6-(4-oxo-3,4-dihydrophthalazin-1-yl)spiro[3.3]heptan-2-yl]-1H-pyrazole-4-carboxamide]
2.01 to 5	Cc1noc(C)c1-c1ccc2c(C(=O)NC3CC4(C3)CC(c3n[nH]c(=O)c5ccccc35)C4)nn(CC(C)(C)O)c2c1 (centres unmarked) [Example 155, 6-(3,5-dimethylisoxazol-4-yl)-1-(2-hydroxy-2-methylpropyl)-N-((αR)-6-(4-oxo-3,4-dihydrophthalazin-1-yl)spiro[3.3]heptan-2-yl)-1H-indazole-3-carboxamide]
0.2 to 2	[2H]C([2H])([2H])n1cc(-c2ccn3c(C(=O)N[C@H]4CC5(C4)C[C@H](c4n[nH]c(=O)c6ccccc64)C5)cnc3c2)cn1 (stereo partly drawn) [Example 442, 7-(1-(methyl-d3)-1H-pyrazol-4-yl)-N-((aR)-6-(4-oxo-3,4-dihydrophthalazin-1-yl)spiro[3.3]heptan-2-yl)imidazo[1,2-a]pyridine-3-carboxamide]
0.2 to 2	CC(C)(O)Cn1cc(C(=O)NC2CC3(C2)CC(c2n[nH]c(=O)c4ccccc24)C3)c2ccccc21 [Example 72, 1-(2-hydroxy-2-methylpropyl)-N-((aR)-6-(4-oxo-3,4-dihydrophthalazin-1-yl)spiro[3.3]heptan-2-yl)-1H-indole-3-carboxamide]
2.01 to 5	COc1ncc(-c2ccc3c(C(=O)NC4CC5(C4)CC(c4n[nH]c(=O)c6ccccc46)C5)cnn3c2)cn1 [Example 210, 6-(2-methoxypyrimidin-5-yl)-N-((aR)-6-(4-oxo-3,4-dihydrophthalazin-1-yl)spiro[3.3]heptan-2-yl)pyrazolo[1,5-a]pyridine-3-carboxamide]
0.2 to 2	[H][C@]1(c2n[nH]c(=O)c3ccccc32)C[C@]2(C[C@@H](NC(=O)c3cnc4cc(OCC(C)(C)O)ccn34)C2)C1 (stereo partly drawn) [Example 400, 7-(2-hydroxy-2-methylpropoxy)-N-((aR)-6-(4-oxo-3,4-dihydrophthalazin-1-yl)spiro[3.3]heptan-2-yl)imidazo[1,2-a]pyridine-3-carboxamide]
2.01 to 5	[H][C@]1(c2n[nH]c(=O)c3ccccc32)C[C@]2(C[C@@H](NC(=O)c3cnc4cc(OC(C)C)ccn34)C2)C1 (stereo partly drawn) [Example 437, 7-isopropoxy-N-((aR)-6-(4-oxo-3,4-dihydrophthalazin-1-yl)spiro[3.3]heptan-2-yl)imidazo[1,2-a]pyridine-3-carboxamide]
0.2 to 2	Cc1nc(N2CCCCC2)sc1C(=O)N[C@H]1CC2(C1)C[C@H](c1n[nH]c(=O)c3ccccc31)C2 (stereo partly drawn) [Example 33, 4-Methyl-N-((aR)-6-(4-oxo-3,4-dihydrophthalazin-1-yl)spiro[3.3]heptan-2-yl)-2-(piperidin-1-yl)thiazole-5-carboxamide]
2.01 to 5	O=C(NC1CC2(C1)CC(c1n[nH]c(=O)c3ccccc13)C2)c1cnn2cc(OCC(O)(C(F)(F)F)C(F)(F)F)ccc12 [Example 98, N-((aR)-6-(4-oxo-3,4-dihydrophthalazin-1-yl)spiro[3.3]heptan-2-yl)-6-(3,3,3-trifluoro-2-hydroxy-2-(trifluoromethyl)propoxy)pyrazolo[1,5-a]pyridine-3-carboxamide]
0.2 to 2	O=C(NC1CC2(C1)CC(c1n[nH]c(=O)c3ccccc13)C2)c1cnn2cc(OCCn3cccn3)ccc12 [Example 81, 6-(2-(1H-pyrazol-1-yl)ethoxy)-N-((aR)-6-(4-oxo-3,4-dihydrophthalazin-1-yl)spiro[3.3]heptan-2-yl)pyrazolo[1,5-a]pyridine-3-carboxamide]
2.01 to 5	O=C(NC1CC2(C1)CC(c1n[nH]c(=O)c3ccccc13)C2)c1cnn2cc(-c3c[nH]nc3C(F)(F)F)ccc12 (stereo not drawn) [Example 172, N-((αR)-6-(4-oxo-3,4-dihydrophthalazin-1-yl)spiro[3.3]heptan-2-yl)-6-(3-(trifluoromethyl)-1H-pyrazol-4-yl)pyrazolo[1,5-α]pyridine-3-carboxamide]
2.01 to 5	Cn1nc(C(=O)NC2CC3(C2)CC(c2n[nH]c(=O)c4ccccc24)C3)cc1C1CC1 [Example 26, 5-cyclopropyl-1-methyl-N-[(aR)-6-(4-oxo-3,4-dihydrophthalazin-1-yl)spiro[3.3]heptan-2-yl]-1H-pyrazole-3-carboxamide]
2.01 to 5	O=C(NC1CC2(C1)CC(c1n[nH]c(=O)c3ccccc13)C2)c1cnn2cc(OCCN3CCOCC3)ccc12 [Example 68, 6-(2-morpholinoethoxy)-N-((aR)-6-(4-oxo-3,4-dihydrophthalazin-1-yl)spiro[3.3]heptan-2-yl)pyrazolo[1,5-a]pyridine-3-carboxamide]
